Data taken from ChEMBL document CHEMBL3414421, “Structure-activity relationship studies and in vivo activity of guanidine-based sphingosine kinase inhibitors: discovery of SphK1- and SphK2-selective inhibitors” (J Med Chem, 2015).
The source made the active and inactive calls. The rule behind the calls is not given here.

Key:
[1] = biological target: T1, Sphingosine kinase 2 (Homo sapiens) (UniProt Q9NRA0); assay: Inhibition of human recombinant SphK2 expressed in Sf9 cells assessed as enzyme activity measured as radiolabeled products using 10 uM sphingosine and 10 uM gamma[32P]ATP at 1 uM by liquid scintillation counting; set-up: scale not given: the % may be the effect or the level left
T1 sequence (whole entry): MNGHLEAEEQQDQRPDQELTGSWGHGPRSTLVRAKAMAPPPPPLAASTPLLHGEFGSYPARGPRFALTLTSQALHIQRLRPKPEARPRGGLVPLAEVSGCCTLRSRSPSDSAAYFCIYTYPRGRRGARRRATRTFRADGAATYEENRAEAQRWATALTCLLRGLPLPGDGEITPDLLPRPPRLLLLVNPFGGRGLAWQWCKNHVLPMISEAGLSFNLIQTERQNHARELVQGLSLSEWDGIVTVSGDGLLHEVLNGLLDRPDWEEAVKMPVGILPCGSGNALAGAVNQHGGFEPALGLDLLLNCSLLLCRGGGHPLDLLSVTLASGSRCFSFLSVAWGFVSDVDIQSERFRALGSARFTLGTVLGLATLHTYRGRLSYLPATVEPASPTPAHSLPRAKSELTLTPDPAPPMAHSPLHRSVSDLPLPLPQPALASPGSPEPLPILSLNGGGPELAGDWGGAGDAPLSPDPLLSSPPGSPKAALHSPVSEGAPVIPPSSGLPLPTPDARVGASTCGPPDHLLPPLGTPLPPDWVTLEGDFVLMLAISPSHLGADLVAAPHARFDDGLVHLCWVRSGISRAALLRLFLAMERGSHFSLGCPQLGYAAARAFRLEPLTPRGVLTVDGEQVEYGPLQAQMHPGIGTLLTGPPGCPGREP

Sphingosine kinase 2 = biological target: T2, Sphingosine kinase 2 (Homo sapiens, UniProt Q9NRA0); assay: biochemical
T2 sequence (Q9NRA0 whole entry): T1 sequence (whole entry)
Description: Inhibition of human recombinant SphK2 expressed in Sf9 cells assessed as radiolabeled products using 10 uM sphingosine and 10 uM gamma[32P]ATP by liquid scintillation counting

in vivo = conditions: mouse, ip, 10 mg/kg
Description: Half life in mouse at 10 mg/kg, ip

[2] = biological target: T1, Sphingosine kinase 2 (Homo sapiens); conditions: U-937, 3 uM
Description: Inhibition of SphK2 in human U937 cells assessed as decrease in phosphorylated FTY720 substrate at 3 uM after 2 hrs incubation by LC-MS-MS analysis

U-937 [3] = assay: Reduction in S1P level in human U937 cells at 100 nM to 1 uM after 2 hrs incubation by LC-MS-MS analysis; assay type: functional, cell-based
Mus musculus [4] = assay: Increase in S1p level in C57BL6/j mouse blood at 10 mg/kg, ip up to 8 hrs by LC-MS-MS analysis relative to control; assay type: functional; conditions: route intraperitoneal
[5] = Cytotoxicity against human U937 cells assessed as cell viability up to 3 uM after 24 hrs by trypan blue dye assay; assay type: cell-based; conditions: u-937, 24 h
U-937 [6] = assay: Increase in sphingosine level in human U937 cells at 100 nM to 1 uM after 2 hrs incubation by LC-MS-MS analysis; assay type: functional, cell-based
Mus musculus [7] = assay: Increase in Sph level in C57BL6/j mouse blood at 10 mg/kg, ip up to 8 hrs by LC-MS-MS analysis relative to control; assay type: functional, organism-based; set-up: dose 10 mg/kg
[8] = Drug uptake in human U937 cells assessed as accumulation in cells at 100 nM to 1 uM after 2 hrs incubation by LC-MS-MS analysis; assay type: ADME, cell-based; conditions: u-937, 2 h, 0.1 µM
U-937 [9] = assay: Decrease in S1P level in human U937 cells at 100 nM after 2 hrs incubation by LC-MS-MS analysis
[10] = Half life in rat; assay type: ADME, organism-based; conditions: in vivo

CCCCCCCCc1ccc(CNC(=O)[C@@H]2CCCN2C(=N)N)cc1
Activity [1]: 95%

CCCCCc1ccc(/C=C/[C@H](O)[C@@H](CO)NC)cc1
Ki (Sphingosine kinase 2): > 100 µM

CCCCCCCCc1ccc(-c2noc([C@@H]3C=CCN3C(=N)N)n2)cc1
Activity [1]: 96%

CCCCCCCCc1ccc(-c2noc([C@@H]3CCN(C(=N)N)C3)n2)cc1
Activity [1]: 95%

CCCCCCCCc1ccc(-c2noc([C@@H]3C[C@@H](O)CN3C(=N)N)n2)cc1
Ki (Sphingosine kinase 2): 5.2 µM | Activity [1]: 70%

OC[C@H]1C[C@@H](O)CCN1CCc1ccc(Nc2nc(-c3ccc(C(F)(F)F)cc3)cs2)cc1
half-life (in vivo): 6.5 h

CCCCCCCCc1ccc(-c2noc([C@H]3CCCN3C(=N)N)n2)cc1
Activity [1]: 90%

CCCCCCCCc1ccc(-c2noc(CN(C)C(=N)N)n2)cc1
Activity [1]: 90%

CCCCCCCCc1ccc(-c2noc([C@@H]3CCN3C(=N)N)n2)cc1.Cl
Ki (Sphingosine kinase 2): 1.2 µM | inhibition [2]: Active | inhibition (U-937 [3]): Active | fold change (FC) (Mus musculus [4]): 2 | Activity [5]: Non-toxic | Activity (U-937 [6]): Active | Activity [1]: 56% | Activity (Mus musculus [7]): Active | Drug uptake [8]: Active

CCCCCCCCc1ccc(-c2nc([C@@H]3CCCN3C(=N)N)no2)cc1
Ki (Sphingosine kinase 2): 1.1 µM | Activity [1]: 42%

CCCCCCCCc1ccc(-c2noc(C3(NC(=N)N)CC3)n2)cc1
Activity [1]: 98%

CCCCCCCCc1ccc(CC[C@](N)(CO)COC)cc1
Ki (Sphingosine kinase 2): 16.5 µM

CCCCCCCCc1ccc(-c2noc([C@@H]3C[C@H](O)CN3C(=N)N)n2)cc1
Activity [1]: 90%

CCCCCCCCc1ccc(-c2noc([C@@H]3CCCCN3C(=N)N)n2)cc1
Activity [1]: 92%

CCCCCCCCc1ccc(-c2noc(CNC(=N)N)n2)cc1
Activity [1]: 90%

CCCCCCCCCCc1ccc(NC(=O)[C@H]2CCCN2C(=N)N)cc1
Activity [1]: 100%

Oc1ccc(Nc2nc(-c3ccc(Cl)cc3)cs2)cc1
Ki (Sphingosine kinase 2): 50 µM

CCCCCCCCc1ccc(-c2noc(C3CN(C(=N)N)C3)n2)cc1
Activity [1]: 96%

CCCCCCCCc1ccc(-c2noc([C@@H](NC(=N)N)C(C)C)n2)cc1
Activity [1]: 85%

CCCCCCCCc1ccc(-c2noc(CC[C@@H]3CCCN3C(=N)N)n2)cc1
Activity [1]: 100%

CCCCCCCCc1ccc(-c2noc([C@H](CO)NC(=N)N)n2)cc1
Activity [1]: 99%

CCCCCCCCc1ccc(C(=O)NC[C@@H]2CCCN2C(=N)N)cc1
Activity [1]: 75%

CCCCCCCCc1ccc(-c2nnc([C@@H]3CCCN3C(=N)N)o2)cc1
Activity [1]: 91%

CCCCCCCCc1ccc(-c2noc([C@@H]3CCCN3C(=N)N)n2)cc1.Cl
Ki (Sphingosine kinase 2): 1.3 µM | Activity [1]: 44%

CCCCCCCCc1ccc(-c2noc([C@@H]3[C@@H](O)CCN3C(=N)N)n2)cc1
Activity [1]: 65%

CCCCCCCCCCc1ccc(NC(=O)[C@@H]2CCCN2C(=N)N)cc1
Activity [1]: 83%

CCCCCCCCc1ccc(-c2noc(C[C@@H]3CCCN3C(=N)N)n2)cc1.Cl
inhibition (U-937 [3]): Active | Inhibition (U-937 [9]): 90% | Drug uptake [8]: Active

C[C@@H](NC(=O)[C@H]1NCC[C@@H]1O)c1ccc(-c2noc(CCC3CCCC3)n2)cc1
half-life [10]: 4.3 h

CCCCCCCCc1ccc(-c2noc([C@H](C)NC(=N)N)n2)cc1
Activity [1]: 94%
